{"source": "patent US5552382A", "about": "(priority 1994, dated 1996)", "key": {"[1]": {"tested_on": "IIIB strain of HIV", "test": "microbe, parasite or virus in culture", "assay_type": "cell-based", "method": "The following test procedure was employed.\nIn a classical virology assay aimed at testing the antiviral activity of a drug, the virus is added in the presence of a drug to target cells for the determined period of inoculation time, e.g., 1 hour, and then nonadsorbed virus is washed away and inoculated cells are exposed again to a fresh drug. After several days, a period corresponding to the replication cycle of the virus, the dose-effect of the drug is tested by measuring the quantity of newly-synthesized virus in the culture supernates of inoculated cells. But this strategy is not truly representative of the in vivo situation. It is clear that in a real-life situation the virus is not \"flushed\" from a human body prior to drug administration. […] In the present assay, virus, drug and cells were left without washing in the culture until tested for virus production 3 days later. This period of time presents one full cycle of HIV replication, Dimitrov et al., J. Virol. 67:2182-90, 1993. It is believed that this type of approach represents more closely and simulates the situation which exists in vivo.\np24 ELISA. Reduction of productive infection was evaluated by a commercial ELISA kit for viral core gag p24 product according to the manufacturer's instructions (Coulter, Hialeah, Fla.) as follows. Detergent-lysed samples of viral culture medium that were incubated in wells (96-well format), precoated with anti-p24 antibody, were screened for gag antigen by adding biotin-labeled anti-p24 antibody followed by streptavidin-peroxidase conjugate. The amount of captured p24 was measured by comparing the optical density (450 nm) of peroxidase substrate with supplied standards containing known amounts of p24. The lower limit of reliable sensitivity of this kit is 7.8 pg/ml."}, "[2]": {"settings": "30 minutes in an autoclave; cited from earlier work"}, "[3]": {"tested_on": "MT-4 lymphocytes", "settings": "MT-4 cells, 3 days continuous exposure; approximate log10 concentration"}, "[4]": {"tested_on": "HIV", "settings": "cited from earlier work; for Dose protecting against / abrogating HIV infection in vitro: literature figures, equivalent of the % or μM value"}, "[5]": {"settings": "MT-4 cells, HIV IIIB, 3 days, p24 ELISA, approximate log10 concentration"}}}
{"molecule": "gramicidin", "values": [{"measurement": "IC100 (100% inhibition of HIV infection)", "setting": "[1]; [5]", "value": "~0.01", "unit": "µg"}, {"measurement": "Cytopathic effect (membrane ballooning, syncytia)", "setting": "[1]; wells where viral replication was completely inhibited", "value": "No signs of cytophatic effect were observed"}]}
{"molecule": "gramicidin S", "values": [{"measurement": "Retention of biological activity after autoclaving", "setting": "[2]", "value": "retains its biological activity"}]}
{"molecule": "Cc1cc2c(C(C)C)c(O)c(O)c(C=O)c2c(O)c1-c1c(C)cc2c(C(C)C)c(O)c(O)c(C=O)c2c1O", "note": "[Gossypol, gossypol]", "values": [{"measurement": "IC50", "setting": "[1]; Human immunodeficiency virus 1, MT4, 72 h, MT-4 cells, HIV IIIB, 3 days, p24 ELISA, approximate log10 concentration, read-out: IC50 (50% inhibition of HIV infection)", "value": "~1", "unit": "µg/mL"}, {"measurement": "Dose giving complete protection against HIV infection", "setting": "[1]; MT-4 cells, HIV IIIB", "value": 10, "unit": "µg/mL"}, {"measurement": "IC100 (100% inhibition of HIV infection)", "setting": "[1]; [5]", "value": "~10", "unit": "µg"}, {"measurement": "CC100 (cytotoxicity)", "setting": "[3]", "value": "~10", "unit": "µg"}, {"measurement": "Dose protecting against / abrogating HIV infection in vitro", "setting": "[4]", "value": 50, "unit": "µg/mL"}, {"measurement": "Concentration reported to abrogate HIV infection", "setting": "[4]; literature in vitro studies", "value": 100, "unit": "µM"}]}
{"molecule": "nonoxynol-9", "values": [{"measurement": "Dose giving complete protection against HIV infection", "setting": "[1]; MT-4 cells, HIV IIIB", "value": 10, "unit": "µg/mL"}, {"measurement": "IC50 (50% inhibition of HIV infection)", "setting": "[1]; [5]", "value": "~10", "unit": "ng"}, {"measurement": "IC100 (100% inhibition of HIV infection)", "setting": "[1]; [5]", "value": "~10", "unit": "µg"}, {"measurement": "CC100 (cytotoxicity)", "setting": "[3]", "value": "~10", "unit": "µg"}, {"measurement": "Dose protecting against / abrogating HIV infection in vitro", "setting": "[4]", "value": 50, "unit": "µg/mL"}, {"measurement": "Dose at which the protective effect was generally observed in vitro", "setting": "[4]; literature review of in vitro investigations", "value": 0.05, "unit": "%"}]}
